Where two headings read alike, the source gives them in different places.
Experiments:
[1] = Lewis acidity measuring method (1): reaction rate constant of reaction between CoTPP and oxygen in the presence of a Lewis acid; format: physicochemical
[2] = test system: colon cancer cells HT29; details: 60 minutes incubation, 48 hours culture
[3] = test system: pancreatic cancer cells PK05; details: 48 hours
[4] = test system: oral cancer cells HO-1-u-1; details: 60 minutes incubation, 48 hours culture
[5] = test system: UM-UC-3 cells; details: 500 ppm NaClO2 for 120 minutes
[6] = test system: pancreatic cancer cells PK10; details: 48 hours
[7] = test system: tongue cancer cells HSC-3; details: 60 minutes incubation, 48 hours culture
[8] = test system: UM-UC-3 cells; details: 500 ppm NaClO2 for 120 minutes, then 24 hours culture; vs PBS group
[9] = test system: UM-UC-3 cells
[10] = test system: colon cancer cells HT116; details: 60 minutes incubation, 48 hours culture
[11] = test system: UM-UC-3 cells; remark: listed apart in the source
[12] = test system: bladder cancer clinical specimen-derived tumor
[13] = test system: various bladder cancer cells (UM-UC-3, UM-UC-2, EJ-1, BOY-12E, 5637); details: 120 minutes incubation
[14] = test system: UM-UC-3 cells; details: 500 ppm NaClO2 for 120 minutes, then 24 hours culture; PBS Control 14.6%
[15] = concentration of 31 ppm or more

CCCC[N+](CCCC)(CCCC)CCCC.F[P-](F)(F)(F)(F)F [tetrabutylammonium hexafluorophosphate]
kcat (reaction rate constant of reaction between CoTPP and oxygen in the presence of a Lewis acid) [1]: >0.1 M^−2 s^−1

sodium chlorite [NaClO2]
viability / proliferation of cancer cells [2]: effect of inhibiting proliferation of cancer cells | proliferation inhibitory effect vs concentration (viability) ([3]; 0-500 ppm): concentration-dependent proliferation inhibitory effect | pancreatic cancer cell proliferation [3, 15]: almost completely inhibited | viability / proliferation of cancer cells [4]: effect of inhibiting proliferation of cancer cells | cell morphology ([5]; 0 hours after removal): morphological changes | cell morphology ([5]; 24 hours after removal): regression of cells | vesicle considered to be an apoptotic vesicle ([5]; 24 hours after removal, magnified photomicrograph): formation of a vesicle | proliferation inhibitory effect vs concentration (viability) ([6]; 0-500 ppm): concentration-dependent proliferation inhibitory effect | pancreatic cancer cell proliferation [6, 15]: almost completely inhibited | viability / proliferation of cancer cells [7]: effect of inhibiting proliferation of cancer cells | fraction ratio in subG1 phase [8]: significantly increased | reactive oxygen species detected, compared with MA-T ([9]; 100 ppm NaClO2 (A100) vs 100 ppm NaClO2 + 100 ppm benzethonium chloride): equivalent to or more than that with MA-T | reactive oxygen production (fluorescence plate reader) ([9]; 500 ppm NaClO2 alone): remarkable reactive oxygen production | fluorescence of active oxygen in cells (fluorescence microscopy) ([9]; 500 ppm NaClO2 alone, final concentration): remarkable active oxygen production | production of reactive oxygen species on contact with cells (fluorescence intensity) ([9]; over time): produced reactive acid species in a time-dependent manner | viability / proliferation of cancer cells [10]: effect of inhibiting proliferation of cancer cells | cell proliferation vs contact time ([11]; 500 ppm NaClO2, 30, 60, 90, 120 minutes): inhibited in a time-dependent manner | inhibition of cell proliferation ([11]; 500 ppm NaClO2, 120 minutes incubation, then 48 hours culture): more than 60% | excised tumor photograph and tumor weight ([12]; tumor immersed in 500 ppm NaClO2, excised on day 27): increase in bladder tumors was inhibited | proliferation of bladder cancer tumors (tumor volume) ([12]; tumor immersed in 500 ppm NaClO2 for 120 minutes before transplantation, measured from day 12): significantly inhibited | proliferation inhibition vs concentration ([13]; then 48 hours culture): concentration-dependent proliferation inhibition | bladder cancer proliferation ([13]; at 500 ppm or more): almost completely inhibited | apoptotic rate of UM-UC-3 cells [14]: 43.8%

benzalkonium chloride
kcat (reaction rate constant of reaction between CoTPP and oxygen in the presence of a Lewis acid) ([1]; acetonitrile, saturated O2, room temperature): 0.18 M^−2 s^−1
